According to patent US20240116946A1 (Gilead Sciences, Inc., priority 2022, published 2024):
Read-outs that look alike come from different tables or passages of the source.

Experiments:
[1] = molecular target: recombinant SARS-CoV-2 Main protease (Mpro) (Severe acute respiratory syndrome coronavirus 2 (2019-nCoV) (SARS-CoV-2), UniProt P0DTD1); experiment: Cov Mpro Biochemical IC50 Assay
SARS-CoV-2-NLuc = experiment: microbe, parasite or virus in culture; type: cell-based, SARS Coronavirus 2
[2] = recombinant SARS-CoV-2 Mpro, fluorogenic peptide substrate, read-out: MPro IC50
[3] = Severe acute respiratory syndrome coronavirus, 48 h, read-out: MPro EC50
[4] = recombinant SARS-CoV-2 Mpro 7.5 nM, fluorogenic peptide substrate 40 μM, read-out: MPro IC50
[5] = Severe acute respiratory syndrome coronavirus, 48 h; read-out: MPro EC50

SMILES: O=c1[nH]c2cc(-c3c(Cl)ccc4c3OCO4)ccc2c(=O)n1-c1cncc2ccccc12 [Example 172]
- IC50 [1, 2]: 159 nM
- EC50 (SARS-CoV-2-NLuc; [3]): 75.8 nM

SMILES: N#Cc1cccc(-c2cccc(Cl)c2-c2ccc3c(=O)n(-c4cncc5ccccc45)c(=O)[nH]c3c2)n1 [Example 276]
- IC50 [1, 2]: 230 nM
- EC50 (SARS-CoV-2-NLuc; [3]): 219 nM

SMILES: COc1cc(-c2cc3c(s2)c(=O)n(-c2cncc4nnn(C)c24)c(=O)n3CCC#N)c(Cl)cc1F (single isomer, unassigned) [Example 1059, 3-(6-(2-chloro-4-fluoro-5-methoxyphenyl)-3-(1-methyl-1H-[1,2,3]triazolo[4,5-c]pyridin-7-yl)-2,4-dioxo-3,4-dihydrothieno[3,2-d]pyrimidin-1(2H)-yl)propanenitrile]
- IC50 [1, 4]: 44.7 nM
- EC50 (SARS-CoV-2-NLuc; read-out: MPro EC50): 101 nM

SMILES: COc1ccc(Cl)c(-c2cc3[nH]c(=O)n(-c4cncc5cccnc45)c(=O)c3s2)c1 [Example 456, 6-(2-chloro-5-methoxyphenyl)-3-(1,6-naphthyridin-8-yl)thieno[3,2-d]pyrimidine-2,4(1H,3H)-dione]
- IC50 [1, 4]: 3.59 nM
- EC50 (SARS-CoV-2-NLuc; [3]): 6.79 nM

SMILES: Cc1cccc(C)c1-c1ccc2c(=O)n(-c3cncc4ccccc34)c(=O)[nH]c2c1 [Example 27]
- IC50 [1, 2]: 770 nM
- EC50 (SARS-CoV-2-NLuc; [3]): 751 nM

SMILES: O=c1[nH]c2cc(-c3cncc4ccccc34)ccc2c(=O)n1-c1cncc2ccccc12 [Example 42]
- IC50 [1, 2]: 3220 nM
- EC50 (SARS-CoV-2-NLuc; [5]): 4950 nM

SMILES: COc1cc(-c2cc3c(s2)c(=O)n(-c2cncc4nc(C(F)(F)F)n(C)c24)c(=O)n3CCC#N)c(Cl)cc1F [Example 856, 3-(6-(2-chloro-4-fluoro-5-methoxyphenyl)-3-(1-methyl-2-(trifluoromethyl)-1H-imidazo[4,5-c]pyridin-7-yl)-2,4-dioxo-3,4-dihydrothieno[3,2-d]pyrimidin-1(2H)-yl)propanenitrile]
- IC50 [1, 4]: 23.2 nM
- EC50 (SARS-CoV-2-NLuc; [3]): 46.1 nM

SMILES: Cn1ncc2cncc(-n3c(=O)[nH]c4cc(-c5c(Cl)cccc5-c5cncc(C#N)c5)sc4c3=O)c21 [Example 677]
- IC50 [1, 4]: 7.27 nM
- EC50 (SARS-CoV-2-NLuc; [5]): 45 nM

SMILES: COc1cc(-c2cc3c(s2)c(=O)n(-c2cncc(C)c2C)c(=O)n3CCC#N)c(Cl)cc1F [Example 932]
- IC50 [1, 4]: 5.33 nM
- EC50 (SARS-CoV-2-NLuc; [3]): 2.42 nM

SMILES: O=c1[nH]c2cc(-c3cc(Cl)ccc3Cl)ccc2c(=O)n1-c1cncc2ccccc12 [Example 60]
- IC50 [1, 2]: 192 nM
- EC50 (SARS-CoV-2-NLuc; [3]): 227 nM

SMILES: Cc1c(F)cncc1-n1c(=O)c2sc(-c3cc(F)c(F)cc3Cl)cc2n(CCC#N)c1=O [Example 850]
- IC50 [1, 4]: 26.7 nM
- EC50 (SARS-CoV-2-NLuc; [5]): 54.2 nM

SMILES: COc1cc(-c2cc3c(s2)c(=O)n(-c2cncc(Cl)c2C)c(=O)n3CCC#N)c(Cl)cc1F (single isomer, unassigned) [Example 1033, 3-[6-(2-chloro-4-fluoro-5-methoxy-phenyl)-3-(5-chloro-4-methyl-3-pyridyl)-2,4-dioxo-thieno[3,2-d]pyrimidin-1-yl]propanenitrile]
- IC50 [1, 4]: 420 nM
- EC50 (SARS-CoV-2-NLuc; read-out: MPro EC50): 488 nM

SMILES: CNC(=O)CCn1c(=O)n(-c2cncc3ccccc23)c(=O)c2sc(-c3ccccc3Cl)cc21 [Example 613, 3-(6-(2-chlorophenyl)-3-(isoquinolin-4-yl)-2,4-dioxo-3,4-dihydrothieno[3,2-d]pyrimidin-1(2H)-yl)-N-methylpropanamide]
- IC50 [1, 4]: 68.6 nM
- EC50 (SARS-CoV-2-NLuc; [5]): 91.9 nM

SMILES: COc1ccc(Cl)c(-c2ccc3c(=O)n(-c4cncc5ccc(N6CCOCC6)cc45)c(=O)[nH]c3c2)c1 [Example 430]
- IC50 [1, 4]: 11.8 nM
- EC50 (SARS-CoV-2-NLuc; [5]): 18.5 nM

SMILES: COc1cc(-c2cc3c(s2)c(=O)n(-c2cncc4cnn(C)c24)c(=O)n3CC#N)c(C#N)cc1F [Example 693]
- IC50 [1, 4]: 2.56 nM
- EC50 (SARS-CoV-2-NLuc; [3]): 94.2 nM

SMILES: COc1cc(-c2cc3c(s2)c(=O)n(-c2cncc4cnn(C)c24)c(=O)n3CCc2nnn[nH]2)c(Cl)cc1F [Example 1002, 6-(2-chloro-4-fluoro-5-methoxy-phenyl)-3-(1-methylpyrazolo[4,3-c]pyridin-7-yl)-1-[2-(1H-tetrazol-5-yl)ethyl]thieno[3,2-d]pyrimidine-2,4-dione]
- IC50 [1, 4]: 33.8 nM
- EC50 (SARS-CoV-2-NLuc; read-out: MPro EC50): 110 nM

SMILES: O=c1c2sc(-c3ccccc3Cl)cc2n(Cc2ccnnc2)c(=O)n1-c1cncc2ccccc12 [Example 155]
- IC50 [1, 2]: 9.13 nM
- EC50 (SARS-CoV-2-NLuc; [3]): 125 nM

SMILES: COc1cc(-c2cc3[nH]c(=O)n(-c4cncc5ccncc45)c(=O)c3s2)c(Cl)cc1F [Example 739]
- IC50 [1, 4]: 9.45 nM
- EC50 (SARS-CoV-2-NLuc; [5]): 17.5 nM

SMILES: COc1cc(-c2cc3c(s2)c(=O)n(-c2cncc4nn(C)c(C)c24)c(=O)n3CCC#N)c(C#N)cc1F [Example 895]
- IC50 [1, 4]: 8.43 nM
- EC50 (SARS-CoV-2-NLuc; [3]): 218 nM

SMILES: COc1ccc(Cl)c(-c2cc3[nH]c(=O)n(-c4cncc5ccc(N6CCn7nc(C(F)(F)F)nc7C6)cc45)c(=O)c3s2)c1 [Example 604]
- IC50 [1, 4]: 6.32 nM
- EC50 (SARS-CoV-2-NLuc; [3]): 10.9 nM

SMILES: COc1cc(-c2cc3[nH]c(=O)n(-c4cncc(C5CC5)c4)c(=O)c3s2)c(Cl)cc1F [Example 753]
- IC50 ([1]; MPro IC50, recombinant SARS-CoV-2 Mpro 7.5 nM, fluorogenic peptide substrate 40 μM): 6.88 nM
- EC50 (SARS-CoV-2-NLuc; [5]): 14.6 nM

SMILES: N#CCn1c(=O)n(-c2cncc3ccccc23)c(=O)c2sc(-c3c(Cl)cccc3-c3cncc(C#N)c3)cc21 [Example 681]
- IC50 [1, 4]: 4.49 nM
- EC50 (SARS-CoV-2-NLuc; [3]): 11.1 nM

SMILES: O=c1[nH]c2cc(-c3c(Cl)cccc3-c3cccnc3)ccc2c(=O)n1-c1cncc2ccccc12 [Example 187]
- IC50 [1, 2]: 29.4 nM
- EC50 (SARS-CoV-2-NLuc; [3]): 17.6 nM

SMILES: COc1cc(-c2cc3c(s2)c(=O)n(-c2cncc(Cl)c2)c(=O)n3CCC#N)c(C#N)cc1F [Example 866]
- IC50 [1, 4]: 5.61 nM
- EC50 (SARS-CoV-2-NLuc; [3]): 12.9 nM

SMILES: COc1cnc(Cl)c(-c2cc3c(s2)c(=O)n(-c2cncc(C(F)(F)F)c2)c(=O)n3CCC#N)c1 [Example 815]
- IC50 [1, 4]: 52.4 nM
- EC50 (SARS-CoV-2-NLuc; [5]): 180 nM

SMILES: O=c1[nH]c2cc(-c3c(Cl)cccc3-c3cnn4c3OCCC4)ccc2c(=O)n1-c1cncc2ccccc12 [Example 325]
- IC50 [1, 2]: 15.8 nM
- EC50 (SARS-CoV-2-NLuc; [3]): 27.9 nM

SMILES: COc1cc(-c2cc3c(s2)c(=O)n(-c2cnc(F)c(C)c2)c(=O)n3CCC#N)c(Cl)cc1F [Example 891]
- IC50 [1, 4]: 9.38 nM
- EC50 (SARS-CoV-2-NLuc; [3]): 29.6 nM

SMILES: Cc1cc(-c2cc3c(s2)c(=O)n(-c2cncc4cnn(C)c24)c(=O)n3CCC#N)c(C#N)cc1F [Example 779]
- IC50 [1, 4]: 24.1 nM
- EC50 (SARS-CoV-2-NLuc; [3]): 67.3 nM

SMILES: COc1cc(-c2cc3c(s2)c(=O)n(-c2cncc4ccccc24)c(=O)n3CC#N)c(Cl)cc1F (single isomer, unassigned) [Example 633, 2-[6-(2-chloro-4-fluoro-5-methoxy-phenyl)-3-(4-isoquinolyl)-2,4-dioxo-thieno[3,2-d]pyrimidin-1-yl]acetonitrile]
- IC50 [1, 4]: 3.22 nM
- EC50 (SARS-CoV-2-NLuc; read-out: MPro EC50): 3.29 nM

SMILES: COc1ccc(Cl)c(-c2cc3[nH]c(=O)n(-c4cncc5ccc(OC)cc45)c(=O)c3s2)c1 [Example 625]
- IC50 [1, 4]: 6.91 nM
- EC50 (SARS-CoV-2-NLuc; [3]): 18.1 nM

SMILES: COc1ccc2cncc(-n3c(=O)[nH]c4cc(-c5ccccc5Cl)ccc4c3=O)c2c1 [Example 237]
- IC50 [1, 2]: 87 nM
- EC50 (SARS-CoV-2-NLuc; [3]): 143 nM

SMILES: CC(C)Oc1cc(F)ccc1-c1cc2[nH]c(=O)n(-c3cncc4ccccc34)c(=O)c2s1 [Example 14]
- IC50 [1, 2]: 132 nM
- EC50 (SARS-CoV-2-NLuc; [3]): 79.9 nM

SMILES: Cc1ccc(C#N)c(-c2cc3c(s2)c(=O)n(-c2cncc4cnn(C)c24)c(=O)n3CCC#N)c1 [Example 784]
- IC50 [1, 4]: 10.8 nM
- EC50 (SARS-CoV-2-NLuc; [3]): 47.1 nM

SMILES: O=c1[nH]c2cc(-c3ccccc3Cl)ccc2c(=O)n1-c1cnccc1C1CCOCC1 [Example 129]
- IC50 [1, 2]: 1030 nM
- EC50 (SARS-CoV-2-NLuc; [3]): 1230 nM

SMILES: CC(C)(C)c1cncc(-n2c(=O)[nH]c3cc(-c4ccccc4Cl)sc3c2=O)c1 [Example 577]
- IC50 [1, 4]: > 50000 nM
- EC50 (SARS-CoV-2-NLuc; [5]): 12100 nM

SMILES: COc1cc(-c2cc3[nH]c(=O)n(-c4cncc5nn(CC(F)(F)F)c(C)c45)c(=O)c3s2)c(Cl)cc1F [Example 740]
- IC50 [1, 4]: 47.9 nM
- EC50 (SARS-CoV-2-NLuc; [3]): 103 nM

SMILES: N#Cc1cc(F)c(F)cc1-c1ccc2c(=O)n(-c3cncc4ccccc34)c(=O)[nH]c2c1 [Example 323]
- IC50 [1, 2]: 112 nM
- EC50 (SARS-CoV-2-NLuc; [3]): 557 nM

SMILES: O=c1[nH]c2cc(-c3ccccc3Cl)ccc2c(=O)n1-c1cncc2ccccc12 (single isomer, unassigned) [Example 104, 7-(2-chlorophenyl)-3-(isoquinolin-4-yl)quinazoline-2,4(1H,3H)-dione]
- IC50 [1, 2]: 6790 nM
- EC50 (SARS-CoV-2-NLuc; read-out: MPro EC50): 3920 nM

SMILES: COc1cnc(Cl)c(-c2cc3[nH]c(=O)n(-c4cncc5ccccc45)c(=O)c3s2)c1 (single isomer, unassigned) [Example 629, 6-(2-chloro-5-methoxypyridin-3-yl)-3-(isoquinolin-4-yl)thieno[3,2-d]pyrimidine-2,4(1H,3H)-dione]
- IC50 [1, 4]: 42.4 nM
- EC50 (SARS-CoV-2-NLuc; read-out: MPro EC50): 290 nM

SMILES: COc1ccc(Cl)c(-c2cc3[nH]c(=O)n(-c4cncc5cn(CC(F)(F)F)nc45)c(=O)c3s2)c1 [Example 502]
- IC50 [1, 4]: < 2.54 nM
- EC50 (SARS-CoV-2-NLuc; [3]): 34.8 nM

SMILES: COc1ccc(F)c(-c2ccc3c(=O)n(-c4cncc5ccccc45)c(=O)[nH]c3c2)c1 [Example 254]
- IC50 [1, 2]: 107 nM
- EC50 (SARS-CoV-2-NLuc; [3]): 277 nM

SMILES: Cc1ccc2cncc(-n3c(=O)[nH]c4cc(-c5ccccc5Cl)sc4c3=O)c2n1 [Example 453, 6-(2-chlorophenyl)-3-(2-methyl-1,6-naphthyridin-8-yl)thieno[3,2-d]pyrimidine-2,4(1H,3H)-dione]
- IC50 [1, 4]: 3.83 nM
- EC50 (SARS-CoV-2-NLuc; [3]): 22.1 nM

SMILES: N#CC1(Cn2c(=O)n(-c3cncc4cccnc34)c(=O)c3sc(-c4ccccc4Cl)cc32)CC1 [Example 711]
- IC50 [1, 4]: 4.41 nM
- EC50 (SARS-CoV-2-NLuc; [3]): 1.71 nM

SMILES: CNC(=O)CCn1c(=O)n(-c2cncc(C3CC3)c2)c(=O)c2sc(-c3ccccc3Cl)cc21 [Example 619, 3-(6-(2-chlorophenyl)-3-(5-cyclopropylpyridin-3-yl)-2,4-dioxo-3,4-dihydrothieno[3,2-d]pyrimidin-1(2H)-yl)-N-methylpropanamide]
- IC50 [1, 4]: 245 nM
- EC50 (SARS-CoV-2-NLuc; [5]): 451 nM

SMILES: O=c1[nH]c2cc(-c3c(Cl)cccc3-c3ccc4c(c3)OC(F)(F)O4)sc2c(=O)n1-c1cncc2ccccc12 [Example 353]
- IC50 [1, 2]: 143 nM
- EC50 (SARS-CoV-2-NLuc; [3]): 31.5 nM
